Source: patent US7297704B2, “Cycloalkyfused indole, benzothiophene, benzofuran and idene derivatives” (Wyeth, priority 2005, dated 2007)
Where a name gives a salt, the structure may show the parent alone.

What was measured:
Human 5-HT1A Receptor [1] = biological target: T1, Human 5-HT1A Receptor (Homo sapiens, UniProt P08908); assay: cAMP RIA in human 5-HT1A receptor cell line; type: cell-based; settings: superscript b; reversal of agonist activity, CHO cells; read-out: c-AMP, (IC50)^b
T1 construct: expressed in transfected cells; host or cells: CHO cells
T1 sequence (P08908 1-422): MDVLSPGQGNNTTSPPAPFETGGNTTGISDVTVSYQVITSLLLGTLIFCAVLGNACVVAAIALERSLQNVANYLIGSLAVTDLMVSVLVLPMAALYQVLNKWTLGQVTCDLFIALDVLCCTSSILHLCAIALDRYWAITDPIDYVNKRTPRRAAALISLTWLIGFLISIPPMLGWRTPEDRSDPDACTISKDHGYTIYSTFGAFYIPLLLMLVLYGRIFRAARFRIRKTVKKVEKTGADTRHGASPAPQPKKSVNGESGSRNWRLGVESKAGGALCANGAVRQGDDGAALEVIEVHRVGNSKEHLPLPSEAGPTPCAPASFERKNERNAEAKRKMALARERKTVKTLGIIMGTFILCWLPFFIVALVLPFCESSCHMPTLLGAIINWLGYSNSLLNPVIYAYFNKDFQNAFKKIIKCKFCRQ
Protocol: Stably transfected CHO cells were grown in DMEM containing 10% heat inactivated FBS and non-essential amino acids. The cells were plated at a density of 10^6 cells per well in a 96 well plate and incubated for 2 days in a CO2 incubator. On the second day, the media was replaced with 0.1 ml Krebs and incubated 15 minutes at 37° C. The media was then replaced with Krebs buffer containing 500 uM IBMX and incubated 5 minutes at 37° C. Wells were treated with forskolin (1 uM final conc) followed immediately by test compound (0.1 and 1 uM for initial screen) and incubated for an additional 10 min at 37° C. Reaction was terminated by removal of the media and addition of 0.5 ml ice cold assay buffer (supplied in RIA kit). Plates are stored at −20° C. prior to assessment of cAMP formation by RIA. Compounds shown to have no agonist activities were further analyzed for ability to reverse agonist activity. In separate experiments, 6 concentrations of antagonist were preincubated for 20 min prior to the addition of agonist and forskolin. Cells were harvested as described. The cAMP kit is supplied by Amersham and the RIA is performed as per kit instructions. In the initial screen, percent inhibition of forskolin stimulated cAMP was measured. In the secondary screen, IC50 of reversal of agonist activity was measured. Calculations of IC50 were performed by GraphPad Prism. Serotonin, BMY 7378, Buspirone, and 8-OH-DPAT were used as reference compounds.

serotonin transporter = biological target: T2, serotonin transporter (Rattus norvegicus, UniProt P31652); assay: 3H-paroxetine binding to the serotonin transporter, rat frontal cortical membranes; settings: values printed in parentheses, 3H-paroxetine 0.1 nM, read-out: rb-5-HH-T, (IC50)
T2 construct: frontal cortical membranes prepared from male S.D. rats; from tissue; host or cells: rat frontal cortex membranes (male Sprague-Dawley)
Protocol: A protocol similar to that used by Cheetham et al. (Neuropharmacol. 32:737, 1993) was used to determine the affinity of compounds for the serotonin transporter. Briefly, frontal cortical membranes prepared from male S.D. rats were incubated with ^3H-paroxetine (0.1 nM) for 60 min at 25° C. All tubes also contained either vehicle, test compound (one to eight concentrations), or a saturating concentration of fluoxetine (10 μM) to define […]. All reactions are terminated by the addition of ice cold Tris buffer followed by rapid filtration using a Tom Tech filtration device to separate bound from free ^3H-paroxetine. Bound radioactivity was quantitated using a Wallac 1205 Beta Plate® counter. Nonlinear regression analysis was used to determine IC50 values which were converted to Ki values using the method of Cheng and Prusoff (Biochem. Pharmacol. 22: 3099, 1973); […].

Human 5-HT1A Receptor [2] = biological target: T1, Human 5-HT1A Receptor; assay: 8-OH-DPAT binding, human 5-HT1A receptor cell line; settings: stably transfected CHO cells, 8-OH-DPAT ligand 1.5 nM; read-out: h5-HT1A Affinity, Ki
Protocol: Stably transfected CHO cells were grown in DMEM containing 10% heat inactivated FBS and non-essential amino acids. Cells were scraped off the plate, transferred to centrifuge tubes, and washed twice by centrifugation (2000 rpm for 10 min., 4° C.) in buffer (50 mM Tris, pH 7.5). The resulting pellets were aliquoted and placed at −80° C. On day of assay, the cells were thawed on ice, and resuspended in buffer. The binding assay was performed in a 96 well microtiter plate in a total volume of […]. Non-specific binding was determined in the presence of […] 5HT; final ligand concentration was 1.5 nM. Following a 30 min. incubation at room temperature, the reaction was terminated by the addition of ice cold buffer and rapid filtration through a GF/B filter presoaked for 30 min. in 0.5% PEI. Compounds were initially tested in a single point assay to determine percent inhibition at […]. Subsequently, Ki values were determined for compounds defined to be active. Percent inhibition Ki was determined by RFComp (Lundon Software), with Serotonin 8-OH-DPAT as the reference compounds.

T2 sequence (P31652 whole entry): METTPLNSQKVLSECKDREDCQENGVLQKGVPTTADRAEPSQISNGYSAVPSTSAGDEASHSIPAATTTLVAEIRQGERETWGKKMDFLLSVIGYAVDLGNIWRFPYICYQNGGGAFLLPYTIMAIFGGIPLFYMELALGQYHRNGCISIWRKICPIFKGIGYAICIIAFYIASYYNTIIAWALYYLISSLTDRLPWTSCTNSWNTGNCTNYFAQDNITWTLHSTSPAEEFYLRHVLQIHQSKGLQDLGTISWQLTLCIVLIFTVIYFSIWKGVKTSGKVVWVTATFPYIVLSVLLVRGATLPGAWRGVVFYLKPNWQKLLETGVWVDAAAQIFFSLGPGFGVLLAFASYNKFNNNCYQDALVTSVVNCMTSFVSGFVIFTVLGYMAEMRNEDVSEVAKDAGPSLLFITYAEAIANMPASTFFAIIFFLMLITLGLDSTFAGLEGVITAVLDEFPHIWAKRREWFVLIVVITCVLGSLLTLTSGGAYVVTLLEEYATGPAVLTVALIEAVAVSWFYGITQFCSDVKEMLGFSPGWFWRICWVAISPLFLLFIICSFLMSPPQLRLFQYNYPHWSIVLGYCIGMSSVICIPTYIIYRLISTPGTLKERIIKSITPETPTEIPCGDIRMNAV

| SMILES | melting point | also measured |
| --- | --- | --- |
| Cc1ccc2c3c(ccc2n1)OC[C@H](CNC[C@@H]1CCc2[nH]c4ccc(C#N)cc4c2C1)O3.Cl.Cl [Example 15, (3R)-3-[({[(2S)-8-methyl-2,3-dihydro[1,4]dioxino[2,3-f]quinolin-2-yl]methyl}amino)methyl]-2,3,4,9-tetrahydro-1H-carbazole-6-carbonitrile dihydrochloride] | 254 to 258 °C | IC50 (Human 5-HT1A Receptor [1]): 888 nM; IC50 (serotonin transporter): 2.25 nM; Ki (Human 5-HT1A Receptor [2]): 15 nM |
| Cc1ccc2c3c(ccc2n1)OC[C@H](CNC[C@@H]1CCc2c(c4cc(F)ccc4n2C)C1)O3 (as salt: hydrochloride) [Example 8, N-{[(3R)-6-fluoro-9-methyl-2,3,4,9-tetrahydro-1H-carbazol-3-yl]methyl}-N-{[(2S)-8-methyl-2,3-dihydro[1,4]dioxino[2,3-f]quinolin-2-yl]methyl}amine] | 242 to 260 °C | – |
| CCCN(C[C@@H]1CCc2[nH]c3ccc(F)cc3c2C1)C[C@H]1COc2ccc3nc(C)ccc3c2O1.Cl.Cl.O.O (hydrate or solvate) [Example 54, N-{[(3R)-6-Fluoro-2,3,4,9-tetrahydro-1H-carbazol-3-yl]methyl}-N-{[(2S)-8-methyl-2,3-dihydro[1,4]dioxino[2,3-f]quinolin-2-yl]methyl}propan-1-amine dihydrochloride dihydrate] | 225 to 240 °C | – |
| Cc1ccc2c3c(ccc2n1)OC[C@H](CN(CC1CC1)CC1CCc2[nH]c4ccc(F)cc4c2C1)O3.Cl.Cl.O.O (stereo partly drawn) (hydrate or solvate) [Example 52, (Cyclopropylmethyl)[(6-fluoro-2,3,4,9-tetrahydro-1H-carbazol-3-yl)methyl]{[(2S)-8-methyl-2,3-dihydro[1,4]dioxino[2,3-f]quinolin-2-yl]methyl}amine dihydrochloride dihydrate] | 215 to 230 °C | – |
| Cc1ccc2c3c(ccc2n1)OC[C@H](CN(C[C@@H]1CCc2[nH]c4ccc(F)cc4c2C1)C1CCC1)O3.Cl.Cl.O.O (hydrate or solvate) [Example 56, N-{[(3R)-6-Fluoro-2,3,4,9-tetrahydro-1H-carbazol-3-yl]methyl}-N-{[(2S)-8-methyl-2,3-dihydro[1,4]dioxino[2,3-f]quinolin-2-yl]methyl}cyclobutanamine dihydrochloride dihydrate] | 215 to 230 °C | – |
| Cc1ccc2c3c(ccc2n1)OC[C@H](CNC[C@H]1CCc2[nH]c4ccccc4c2C1)O3 (single isomer, unassigned) (as salt: hydrochloride) [Example 100a] | 202 to 205 °C (dec.) | – |
| Cc1ccc2c3c(ccc2n1)OC[C@H](CN(C[C@H]1CCc2[nH]c4ccc(F)cc4c2C1)C1CCCC1)O3.Cl.O (hydrate or solvate) [Example 63, N-{[(3S)-6-Fluoro-2,3,4,9-tetrahydro-1H-carbazol-3-yl]methyl}-N-{[(2S)-8-methyl-2,3-dihydro[1,4]dioxino[2,3-f]quinolin-2-yl]methyl}cyclopentanamine monohydrochloride monohydrate] | 237 to 254 °C | – |
| Cc1ccc2c3c(ccc2n1)OC[C@H](CN(C[C@H]1CCc2[nH]c4ccc(F)cc4c2C1)C1CCCCC1)O3.Cl.O (hydrate or solvate) [Example 64, N-{[(3S)-6-Fluoro-2,3,4,9-tetrahydro-1H-carbazol-3-yl]methyl}-N-{[(2S)-8-methyl-2,3-dihydro[1,4]dioxino[2,3-f]quinolin-2-yl]methyl}cyclohexanamine monohydrochloride monohydrate] | 202 to 208 °C | – |
| Cc1ccc2c3c(ccc2n1)OCC(CNCC1CCc2[nH]c4ccc(Cl)cc4c2C1)O3 (stereo not shown) [Example 85, (6-Chloro-2,3,4,9-tetrahydro-1H-carbazol-3-ylmethyl)-(8-methyl-2,3-dihydro-[1,4]dioxino[2,3-f]quinolin-2-ylmethyl)-amine] | 235 to 237 °C | – |
| Cc1ccc2c3c(ccc2n1)OC[C@H](CN(C[C@@H]1CCc2[nH]c4ccc(F)cc4c2C1)C(C)C)O3.Cl.O (hydrate or solvate) [Example 57, N-{[(3R)-6-Fluoro-2,3,4,9-tetrahydro-1H-carbazol-3-yl]methyl}-N-{[(2S)-8-methyl-2,3-dihydro[1,4]dioxino[2,3-f]quinolin-2-yl]methyl}propan-2-amine monohydrochloride monohydrate] | 230 to 243 °C | – |
| Cc1ccc2c3c(ccc2n1)OCC(CN(CC1CCc2c(c4cc(F)ccc4n2C)C1)C(C)C)O3 (as salt: hydrochloride) (hydrate or solvate) [Example 65, N-[(6-Fluoro-9-methyl-2,3,4,9-tetrahydro-1H-carbazol-3-yl)methyl]-N-([(2S)-8-methyl-2,3-dihydro[1,4]dioxino[2,3-f]quinolin-2-yl]methylpropan-2-aminemonohydrochloride monohydrate] | 201 to 222 °C | – |
| Cc1ccc2c3c(ccc2n1)OC[C@H](CNC[C@@H]1CCc2[nH]c4ccccc4c2C1)O3 (single isomer, unassigned) (as salt: hydrochloride) [Example 100b] | 218 to 221 °C (dec.) | – |
| Cc1ccc2c3c(ccc2n1)OC[C@H](CN(CC1CC1)C[C@@H]1CCc2[nH]c4ccc(F)cc4c2C1)O3.Cl.Cl.O.O (hydrate or solvate) [Example 55, (Cyclopropylmethyl){[(3R)-6-fluoro-2,3,4,9-tetrahydro-1H-carbazol-3-yl]methyl}{[(2S)-8-methyl-2,3-dihydro[1,4]dioxino[2,3-f]quinolin-2-yl]methyl}amine dihydrochloride dihydrate] | 210 to 225 °C | – |
| Cc1ccc2c3c(ccc2n1)OC[C@H](CN(C)C[C@@H]1CCc2c(c4cc(F)ccc4n2C)C1)O3.Cl.O (hydrate or solvate) [Example 69, {[(3R)-6-Fluoro-9-methyl-2,3,4,9-tetrahydro-1H-carbazol-3-yl]methyl}methyl{[(2S)-8-methyl-2,3-dihydro[1,4]dioxino[2,3-f]quinolin-2-yl]methyl}amine monohydrochloride monohydrate] | 244 to 256 °C | – |
| CCN(CC1CCc2[nH]c3ccc(F)cc3c2C1)C[C@H]1COc2ccc3nc(C)ccc3c2O1.Cl.Cl.O.O (stereo partly drawn) (hydrate or solvate) [Example 50, N-[(6-Fluoro-2,3,4,9-tetrahydro-1H-carbazol-3-yl)methyl]-N-{[(2S)-8-methyl-2,3-dihydro[1,4]dioxino[2,3-f]quinolin-2-yl]methyl}ethanamine dihydrochloride dihydrate] | 234 to 249 °C | – |
| Cc1ccc2c3c(ccc2n1)OC[C@H](CN(CC1CCc2c(c4cc(F)ccc4n2C)C1)C1CCCCC1)O3.Cl.O (stereo partly drawn) (hydrate or solvate) [Example 67, N-[(6-Fluoro-9-methyl-2,3,4,9-tetrahydro-1H-carbazol-3-yl)methyl]-N-{[(2S)-8-methyl-2,3-dihydro[1,4]dioxino[2,3-f]quinolin-2-yl]methyl}cyclohexanamine monohydrochloride monohydrate] | 204 to 225 °C | – |
